One may read the EC50 as the concentration giving half of the maximal effect. For orientation: AC50 means the concentration at which the activity in the assay is half-maximal.

Consider eleven molecules from ChEMBL document CHEMBL1201862, “PubChem BioAssay data set” (2004).

The source made the active and inactive calls. Where only a bound is given, the exact number is not on record here.

In experiment [1] the target is T1, Trace amine-associated receptor 1 (Homo sapiens, UniProt Q96RJ0).
T1 sequence (Q96RJ0 whole entry): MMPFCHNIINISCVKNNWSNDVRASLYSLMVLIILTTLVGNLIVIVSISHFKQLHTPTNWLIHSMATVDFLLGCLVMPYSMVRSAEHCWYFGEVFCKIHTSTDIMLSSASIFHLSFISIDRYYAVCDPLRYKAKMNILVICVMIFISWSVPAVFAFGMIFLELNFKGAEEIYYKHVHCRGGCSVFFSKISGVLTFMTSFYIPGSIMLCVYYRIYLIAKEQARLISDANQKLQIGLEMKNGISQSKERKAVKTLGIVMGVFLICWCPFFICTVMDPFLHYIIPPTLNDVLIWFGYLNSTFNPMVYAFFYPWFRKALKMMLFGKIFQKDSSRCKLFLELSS
Put plainly: Counterscreen for agonists of the human trace amine associated receptor 1 (hTAAR1): Fluorescence-based cell-based high throughput dose response assay to identify hTAAR1 agonist that also desensitize TAAR1 receptor response. It is filed as functional. Background: A counterscreen serves to expose hits that act by an unwanted route or on another target.

Experiment [2] deals with T1, Trace amine-associated receptor 1. Nature of the experiment: Fluorescence-based cell-based high throughput dose response assay to identify agonists of the human trace amine associated receptor 1 (TAAR1). It is filed as functional.
Experiment [3] in a line: cells. The experiment is classed as functional, cell-based.
A short description of experiment [4]: cells. The experiment is classed as functional, cell-based. The source holds these as a separate data set.
The nature of experiment [5]: nonselective inhibitors of cellular cAMP signaling, dose response, counter-screen for MC4R biased antagonist project, cell-based, TR-FRET cAMP detection (AID 602305).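 Further: U2OS cells stimulated with forskolin near its EC80 as the cAMP inducer; potency is for inhibition of forskolin-stimulated cAMP signaling.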 The experiment is classed as functional.
Another experiment has as its target Melanocortin receptor 4 (Homo sapiens, UniProt P32245). Nature of the experiment: MC4R antagonist potency on cAMP, dose response, cell-based, TR-FRET, biased antagonists (AID 602298).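 Further: antagonist potency against agonist-stimulated cAMP production.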 It is filed as functional. (In general: TR-FRET usually uses a lanthanide donor and a delayed reading to cut background.)
The target of experiment [6] is T2, 1-phosphatidylinositol 4,5-bisphosphate phosphodiesterase beta-3 (Homo sapiens, UniProt Q01970).
T2 sequence (Q01970 whole entry): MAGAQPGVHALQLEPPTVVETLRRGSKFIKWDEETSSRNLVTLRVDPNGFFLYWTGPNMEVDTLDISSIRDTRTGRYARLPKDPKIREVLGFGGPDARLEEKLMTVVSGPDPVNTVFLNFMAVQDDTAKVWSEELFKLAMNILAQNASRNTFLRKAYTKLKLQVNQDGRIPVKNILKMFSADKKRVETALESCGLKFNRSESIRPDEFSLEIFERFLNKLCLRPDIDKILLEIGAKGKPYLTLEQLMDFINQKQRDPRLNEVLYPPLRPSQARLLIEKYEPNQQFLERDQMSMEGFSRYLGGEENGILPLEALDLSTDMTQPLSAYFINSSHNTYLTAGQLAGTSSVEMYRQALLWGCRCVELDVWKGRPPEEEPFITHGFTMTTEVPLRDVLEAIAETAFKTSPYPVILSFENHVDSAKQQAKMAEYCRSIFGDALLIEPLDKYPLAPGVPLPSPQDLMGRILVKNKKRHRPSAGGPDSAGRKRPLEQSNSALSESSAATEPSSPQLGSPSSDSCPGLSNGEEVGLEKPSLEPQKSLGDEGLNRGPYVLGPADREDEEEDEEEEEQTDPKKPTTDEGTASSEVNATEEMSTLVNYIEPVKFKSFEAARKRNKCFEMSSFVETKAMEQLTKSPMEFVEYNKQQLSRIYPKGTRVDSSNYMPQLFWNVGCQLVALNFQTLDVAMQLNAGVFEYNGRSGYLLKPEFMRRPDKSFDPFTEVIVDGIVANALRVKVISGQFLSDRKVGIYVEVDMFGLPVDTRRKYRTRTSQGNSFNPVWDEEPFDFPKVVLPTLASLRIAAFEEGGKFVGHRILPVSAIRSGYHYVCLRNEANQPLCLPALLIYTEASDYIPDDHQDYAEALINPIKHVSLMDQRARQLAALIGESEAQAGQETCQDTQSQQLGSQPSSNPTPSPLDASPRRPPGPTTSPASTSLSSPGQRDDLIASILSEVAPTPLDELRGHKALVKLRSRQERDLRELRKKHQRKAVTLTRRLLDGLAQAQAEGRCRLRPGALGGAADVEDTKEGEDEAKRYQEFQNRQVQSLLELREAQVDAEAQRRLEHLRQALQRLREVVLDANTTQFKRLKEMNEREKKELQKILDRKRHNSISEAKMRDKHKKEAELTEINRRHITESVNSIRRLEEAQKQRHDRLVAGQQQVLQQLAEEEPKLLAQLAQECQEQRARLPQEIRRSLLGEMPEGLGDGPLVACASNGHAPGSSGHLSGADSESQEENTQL
Nature of the experiment: Fluorescence-based biochemical high throughput dose response assay to identify inhibitors of phospholipase C isozymes (PLC-B3).

Experiment [7] concerns the target T3, 1-phosphatidylinositol 4,5-bisphosphate phosphodiesterase gamma-1 (Homo sapiens, UniProt P19174).
T3 sequence (P19174 whole entry): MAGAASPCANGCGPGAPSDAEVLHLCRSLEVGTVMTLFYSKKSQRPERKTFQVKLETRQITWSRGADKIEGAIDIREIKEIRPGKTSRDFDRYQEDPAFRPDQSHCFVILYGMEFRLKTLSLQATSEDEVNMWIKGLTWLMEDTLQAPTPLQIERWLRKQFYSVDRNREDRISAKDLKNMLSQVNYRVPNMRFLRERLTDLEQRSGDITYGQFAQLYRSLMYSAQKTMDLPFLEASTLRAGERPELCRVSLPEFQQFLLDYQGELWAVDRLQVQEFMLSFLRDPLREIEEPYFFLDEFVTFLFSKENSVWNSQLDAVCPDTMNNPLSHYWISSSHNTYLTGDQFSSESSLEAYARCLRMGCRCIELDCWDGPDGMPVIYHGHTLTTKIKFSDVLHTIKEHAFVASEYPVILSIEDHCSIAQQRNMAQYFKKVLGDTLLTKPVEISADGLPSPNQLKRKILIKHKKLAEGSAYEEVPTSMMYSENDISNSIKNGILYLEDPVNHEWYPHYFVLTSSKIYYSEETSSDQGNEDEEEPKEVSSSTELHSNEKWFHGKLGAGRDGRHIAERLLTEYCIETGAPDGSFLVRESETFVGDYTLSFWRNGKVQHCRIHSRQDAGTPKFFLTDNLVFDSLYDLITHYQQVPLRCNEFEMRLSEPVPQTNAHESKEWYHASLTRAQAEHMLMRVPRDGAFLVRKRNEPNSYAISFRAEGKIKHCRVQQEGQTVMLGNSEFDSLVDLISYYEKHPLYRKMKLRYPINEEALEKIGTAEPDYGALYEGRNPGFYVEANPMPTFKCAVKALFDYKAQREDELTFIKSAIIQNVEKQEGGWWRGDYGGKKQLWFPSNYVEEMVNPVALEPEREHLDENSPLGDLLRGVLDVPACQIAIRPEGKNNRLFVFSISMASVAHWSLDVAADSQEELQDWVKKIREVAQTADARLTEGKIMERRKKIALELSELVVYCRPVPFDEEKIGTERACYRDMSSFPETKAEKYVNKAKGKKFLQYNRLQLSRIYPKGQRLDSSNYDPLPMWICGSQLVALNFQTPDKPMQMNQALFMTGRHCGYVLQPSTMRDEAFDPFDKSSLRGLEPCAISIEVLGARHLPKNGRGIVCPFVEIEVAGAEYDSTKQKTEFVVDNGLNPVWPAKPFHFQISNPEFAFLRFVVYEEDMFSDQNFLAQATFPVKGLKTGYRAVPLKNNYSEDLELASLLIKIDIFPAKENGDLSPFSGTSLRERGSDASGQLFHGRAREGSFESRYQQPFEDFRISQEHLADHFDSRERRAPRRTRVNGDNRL
Nature of the experiment: Counterscreen for inhibitors of phospholipase C isozymes (PLC-B3): Fluorescence-based biochemical high throughput dose response assay to identify inhibitors of phospholipase C isozymes (PLC-gamma1).

The nature of experiment [8]: NIH:OVCAR-3 ovarian cancer cell cytotoxicity, dose response, PAX8 inhibitor project, plate reader, dry powder samples (AID 743044). It is filed as functional, cell-based.
Experiment [9] in a line: IOSE-T80 ovarian epithelial cell cytotoxicity, dose response, cytotoxicity control for PAX8 inhibitor project, plate reader, dry powder samples (AID 743045). It is filed as functional, cell-based.
Experiment [10] can be described thus: IGROV1 ovarian cancer cell cytotoxicity, dose response, PAX8 inhibitor project, plate reader, dry powder samples (AID 743043). The experiment is classed as functional, cell-based. To be noted: IGROV-1.
Experiment [11] in a line: inhibitors of PGC1a acetylation in cells, dose response, cell-based, cherry-picked samples (AID 720514).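 Further: potency may reflect raised or lowered acetylation signal.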 The experiment is classed as functional.
A further experiment has as its target Protein Wnt-3a (Mus musculus, UniProt P27467). Put plainly: Wnt3a-driven reporter signaling inhibition, dose response, selectivity assay for Gli-SUFU antagonist project, Wnt-LIGHT cells, luminescence (AID 651570).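 Further: Wnt-LIGHT reporter cells stimulated with conditioned medium from Wnt3a-producing cells.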 The settings on record: read-out: IC50_Mean. The experiment is classed as functional.
A further experiment concerns INS1. Put plainly: beta cell apoptosis inhibitors, cytokine rescue, dose response, luminescence, retest (AID 449756).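 Further: cell death triggered by IL-1 beta plus TNF-alpha plus IFN-gamma mixture; protective hits raise ATP signal compared with cytokine alone wells.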 It is filed as functional, cell-based. To be noted: Rattus norvegicus, INS1.

Melanocortin receptor 4, sequence (P32245 whole entry): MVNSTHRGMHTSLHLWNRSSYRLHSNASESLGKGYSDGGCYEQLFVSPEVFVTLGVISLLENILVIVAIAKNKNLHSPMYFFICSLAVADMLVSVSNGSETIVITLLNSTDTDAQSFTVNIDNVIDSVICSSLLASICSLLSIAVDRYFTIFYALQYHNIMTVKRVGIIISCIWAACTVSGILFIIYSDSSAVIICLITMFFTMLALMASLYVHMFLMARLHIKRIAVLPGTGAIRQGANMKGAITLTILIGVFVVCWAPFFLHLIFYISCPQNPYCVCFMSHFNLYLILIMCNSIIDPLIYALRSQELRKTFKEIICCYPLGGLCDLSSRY
Protein Wnt-3a, sequence (P27467 whole entry): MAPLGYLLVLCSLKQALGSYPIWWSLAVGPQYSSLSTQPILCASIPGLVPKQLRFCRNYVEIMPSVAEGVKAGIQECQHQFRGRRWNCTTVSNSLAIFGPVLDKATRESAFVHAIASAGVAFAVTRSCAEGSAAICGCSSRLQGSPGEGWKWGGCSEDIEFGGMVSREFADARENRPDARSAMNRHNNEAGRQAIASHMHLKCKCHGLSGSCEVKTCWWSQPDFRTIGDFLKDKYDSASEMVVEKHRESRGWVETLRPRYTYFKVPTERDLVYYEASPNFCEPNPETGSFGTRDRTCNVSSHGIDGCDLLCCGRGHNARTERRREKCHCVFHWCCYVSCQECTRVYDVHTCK

As for `Cc1cccc(CCNCc2cc3cc(C)cc(C)c3nc2O)c1`, the values for the IC50 (in experiment [1]; in the experiment “cells [4]”) were 1.84 µM (active) and > 29.9 µM (inactive), respectively. Also, the EC50 in experiment [2] was 0.73 µM (active); in “cells [3]”, > 29.9 µM (inactive).
With `CCN(c1ccc(OCC(=O)OCC(=O)c2c(N)n(C)c(=O)n(C)c2=O)cc1)S(=O)(=O)c1ccccc1`, the IC50 in [5] is > 64.6 µM (inactive); on Melanocortin receptor 4 it was > 7.18 µM (active).
For `O=C(Nc1nc2cc(Cl)ccc2s1)C1CCCN(S(=O)(=O)c2cccc3cccnc23)C1` (centres undefined) the same measures were > 64.6 µM (inactive) and > 64.6 µM (inactive).
With `O=S(=O)(CS(=O)(=O)c1ccccc1Br)c1ccccc1Br`, the results for the IC50 in [6] and in experiment [7] were > 122 µM (inactive) and 44.7 µM (inactive), respectively.
On to `O=C(O)C1CCCCC1C(=O)NCCc1ccc(F)cc1` (centres undefined), for which the IC50 in experiment [1] is 8.15 µM (active); in “cells [4]” it was > 29.9 µM (inactive). Further, the EC50 was 1.39 µM (active) in experiment [2] and > 29.9 µM (inactive) in “cells [3]”.
`COc1cccc(-c2ccc([C@@H]3[C@@H]4CN(Cc5cccc(F)c5)C[C@H]3N4)cc2)c1`: the AC50 was 24.4 µM (active) in [8], 36 µM (active) in [9], 34 µM (active) in [10] and 4.26 µM (active) in experiment [11].
As to `c1ccc(COc2ccc(-c3cc4nc(NCCN5CCOCC5)ccn4n3)cc2)cc1`, the results for the IC50 (in experiment [5]; on Melanocortin receptor 4) were > 64.6 µM (inactive) and 20 µM (inactive), respectively.
Consider `CC(C)(C)c1ccc(CNc2nc(-c3ccccn3)nnc2-c2ccccc2)cc1`, for which the IC50 in experiment [6] and in [7] was > 122 µM (inactive) each time.
`C(#Cc1ccccc1)C[N+]1(CC#Cc2ccccc2)CCCC1`: the IC50 on Protein Wnt-3a was 8.34 µM (active).
For the molecule `O=C(NC(c1cccnc1)C(F)(F)F)c1cc(COc2ccc3c(c2)CCCC3)on1` (centres undefined), the IC50 at Protein Wnt-3a is 40.4 µM (inactive). In the experiment with INS1, the AC50 is 3.48 µM (active).
Take `Cc1ccnc(NC(=O)Nc2ccc3c(c2)OCO3)c1`: the IC50 (in experiment [1]; in the experiment “cells [4]”) was > 29.9 µM (inactive) each time. The EC50 (in experiment [2]; in “cells [3]”) was > 29.9 µM (inactive) each time.
